# Where two headings read alike, the source gives them in different places.
# What was measured:
# [1] = Plasma AMG 232 pharmacokinetics (HPLC-MS, non-compartmental analysis); assay type: in vivo, human; conditions: for AUC(0-t) / Cmax / Tmax / Vd/F: human, plasma, oral; for AUC(0-t): read-out: AUC24h, mean (SD); for Cmax: read-out: Cmax, mean (SD); for Tmax: read-out: tmax, median (range); for Vd/F: read-out: Vz/F, mean (SD)
# Procedure: Non-compartmental analysis was performed using WinNonlin Professional software, version 6.3. Parameters were summarized descriptively.
# MDM2-p53 interaction = conditions: cited from earlier work
# MDM2-amplified tumors = conditions: cited from earlier work
# [2] = 15 mg, Day 1, dose escalation, 15 mg (n = 3)
# [3] = 15 mg, Day 7, dose escalation, 15 mg (n = 3)
# [4] = 30 mg, Day 1, dose escalation, 30 mg (n = 3)
# [5] = 30 mg, Day 7, dose escalation, 30 mg (n = 3)
# [6] = 60 mg, Day 1, dose escalation, 60 mg (n = 2–4)
# [7] = 60 mg, Day 7, dose escalation, 60 mg (n = 2–4)
# [8] = 120 mg, Day 1, dose escalation, 120 mg (n = 4–7)
# [9] = 120 mg, Day 7, dose escalation, 120 mg (n = 4–7)
# [10] = 240 mg, Day 1, 240-mg dose expansion, DDLPS (n = 6–10)
# [11] = 240 mg, Day 1, 240-mg dose expansion, ER + PR+ Breast (n = 6–8)
# [12] = 240 mg, Day 1, 240-mg dose expansion, ER + PR– Breast (n = 4)
# [13] = 240 mg, Day 1, 240-mg dose expansion, GBM (n = 6–9)
# [14] = 240 mg, Day 1, 240-mg dose expansion, Multiple Myeloma (n = 7–10)
# [15] = 240 mg, Day 1, 240-mg dose expansion, Other Solid (n = 9–16)
# [16] = 240 mg, Day 1, 240-mg dose expansion, Total (n = 47–67)
# [17] = 240 mg, Day 1, 240-mg dose expansion, WDLPS (n = 9–10)
# [18] = 240 mg, Day 1, Parts 1 and 2, 240 mg (n = 54–75)
# [19] = 240 mg, Day 1, dose escalation, 240 mg (n = 7–8)
# [20] = 240 mg, Day 7, 240-mg dose expansion, DDLPS (n = 6–10)
# [21] = 240 mg, Day 7, 240-mg dose expansion, ER + PR+ Breast (n = 6–8)
# [22] = 240 mg, Day 7, 240-mg dose expansion, ER + PR– Breast (n = 4)
# [23] = 240 mg, Day 7, 240-mg dose expansion, GBM (n = 6–9)
# [24] = 240 mg, Day 7, 240-mg dose expansion, Multiple Myeloma (n = 7–10)
# [25] = 240 mg, Day 7, 240-mg dose expansion, Other Solid (n = 9–16)
# [26] = 240 mg, Day 7, 240-mg dose expansion, Total (n = 47–67)
# [27] = 240 mg, Day 7, 240-mg dose expansion, WDLPS (n = 9–10)
# [28] = 240 mg, Day 7, Parts 1 and 2, 240 mg (n = 54–75)
# [29] = 240 mg, Day 7, dose escalation, 240 mg (n = 7–8)
# [30] = 300 mg, Day 1, dose escalation, 300 mg (n = 3–4)
# [31] = 300 mg, Day 7, dose escalation, 300 mg (n = 3–4)
# [32] = 360 mg, Day 1, dose escalation, 360 mg (n = 3–4)
# [33] = 360 mg, Day 7, dose escalation, 360 mg (n = 3–4)
# [34] = 480 mg, Day 1, dose escalation, 480 mg (n = 5–6)
# [35] = 480 mg, Day 7, dose escalation, 480 mg (n = 5–6)
smiles,measurement,setting,value
CC(C)[C@@H](CS(=O)(=O)C(C)C)N1C(=O)[C@@](C)(CC(=O)O)C[C@H](c2cccc(Cl)c2)[C@H]1c1ccc(Cl)cc1 [AMG 232],Dose proportionality of plasma concentrations,[1]; 15–480 mg QD for 7 days Q3W,increased generally dose proportionally
same,AUC(0-t),[1]; [2],884 ng·h/mL
same,Cmax,[1]; [2],169 ng/mL
same,Tmax,[1]; [2],3.1 h
same,AUC(0-t),[1]; [3],949 ng·h/mL
same,Cmax,[1]; [3],130 ng/mL
same,Vd/F,[1]; [3],497 L
same,Tmax,[1]; [3],3.1 h
same,AUC(0-t),[1]; [4],1960 ng·h/mL
same,Cmax,[1]; [4],255 ng/mL
same,Tmax,[1]; [4],3 h
same,AUC(0-t),[1]; [5],2830 ng·h/mL
same,Cmax,[1]; [5],259 ng/mL
same,Tmax,[1]; [5],3 h
same,AUC(0-t),[1]; [6],2950 ng·h/mL
same,Cmax,[1]; [6],527 ng/mL
same,Tmax,[1]; [6],3 h
same,AUC(0-t),[1]; [7],4000 ng·h/mL
same,Cmax,[1]; [7],457 ng/mL
same,Vd/F,[1]; [7],360 L
same,Tmax,[1]; [7],4 h
same,AUC(0-t),[1]; [8],5160 ng·h/mL
same,Cmax,[1]; [8],599 ng/mL
same,Tmax,[1]; [8],3 h
same,AUC(0-t),[1]; [9],8940 ng·h/mL
same,Cmax,[1]; [9],868 ng/mL
same,Vd/F,[1]; [9],664 L
same,Tmax,[1]; [9],3 h
same,AUC(0-t),[1]; [10],8010 ng·h/mL
same,Cmax,[1]; [10],986 ng/mL
same,Tmax,[1]; [10],2 h
same,AUC(0-t),[1]; [11],9660 ng·h/mL
same,Cmax,[1]; [11],1920 ng/mL
same,Tmax,[1]; [11],2.8 h
same,AUC(0-t),[1]; [12],9430 ng·h/mL
same,Cmax,[1]; [12],1360 ng/mL
same,Tmax,[1]; [12],2.1 h
same,AUC(0-t),[1]; [13],5360 ng·h/mL
same,Cmax,[1]; [13],978 ng/mL
same,Tmax,[1]; [13],3 h
same,Cmax,[1]; [14],1320 ng/mL
same,Tmax,[1]; [14],2 h
same,AUC(0-t),[1]; [15],10800 ng·h/mL
same,Cmax,[1]; [15],1670 ng/mL
same,Tmax,[1]; [15],3 h
same,AUC(0-t),[1]; [16],8830 ng·h/mL
same,Cmax,[1]; [16],1390 ng/mL
same,Tmax,[1]; [16],3 h
same,AUC(0-t),[1]; [17],9260 ng·h/mL
same,Cmax,[1]; [17],1350 ng/mL
same,Tmax,[1]; [17],3.1 h
same,AUC(0-t),[1]; [18],8480 ng·h/mL
same,Cmax,[1]; [18],1350 ng/mL
same,Tmax,[1]; [18],3 h
same,AUC(0-t),[1]; [19],5690 ng·h/mL
same,Cmax,[1]; [19],1030 ng/mL
same,Tmax,[1]; [19],2 h
same,AUC(0-t),[1]; [20],10800 ng·h/mL
same,Cmax,[1]; [20],1050 ng/mL
same,Vd/F,[1]; [20],537 L
same,Tmax,[1]; [20],3 h
same,Cmax,[1]; [21],1350 ng/mL
same,Vd/F,[1]; [21],689 L
same,Tmax,[1]; [21],2.8 h
same,AUC(0-t),[1]; [22],9960 ng·h/mL
same,Cmax,[1]; [22],1620 ng/mL
same,Vd/F,[1]; [22],814 L
same,Tmax,[1]; [22],1 h
same,AUC(0-t),[1]; [23],9210 ng·h/mL
same,Cmax,[1]; [23],988 ng/mL
same,Vd/F,[1]; [23],1010 L
same,Tmax,[1]; [23],2.8 h
same,AUC(0-t),[1]; [24],8450 ng·h/mL
same,Cmax,[1]; [24],1190 ng/mL
same,Vd/F,[1]; [24],859 L
same,Tmax,[1]; [24],1.1 h
same,AUC(0-t),[1]; [25],17200 ng·h/mL
same,Cmax,[1]; [25],2200 ng/mL
same,Vd/F,[1]; [25],353 L
same,Tmax,[1]; [25],2.9 h
same,AUC(0-t),[1]; [26],12300 ng·h/mL
same,Cmax,[1]; [26],1420 ng/mL
same,Vd/F,[1]; [26],627 L
same,Tmax,[1]; [26],2.8 h
same,AUC(0-t),[1]; [27],15700 ng·h/mL
same,Cmax,[1]; [27],1230 ng/mL
same,Vd/F,[1]; [27],389 L
same,Tmax,[1]; [27],3 h
same,AUC(0-t),[1]; [28],12100 ng·h/mL
same,Cmax,[1]; [28],1440 ng/mL
same,Vd/F,[1]; [28],613 L
same,Tmax,[1]; [28],2.9 h
same,AUC(0-t),[1]; [29],10600 ng·h/mL
same,Cmax,[1]; [29],1560 ng/mL
same,Vd/F,[1]; [29],523 L
same,Tmax,[1]; [29],3 h
same,AUC(0-t),[1]; [30],14700 ng·h/mL
same,Cmax,[1]; [30],1740 ng/mL
same,Tmax,[1]; [30],3 h
same,AUC(0-t),[1]; [31],25000 ng·h/mL
same,Cmax,[1]; [31],2090 ng/mL
same,Vd/F,[1]; [31],762 L
same,Tmax,[1]; [31],3.1 h
same,AUC(0-t),[1]; [32],15800 ng·h/mL
same,Cmax,[1]; [32],2380 ng/mL
same,Tmax,[1]; [32],2 h
same,AUC(0-t),[1]; [33],15500 ng·h/mL
same,Cmax,[1]; [33],2050 ng/mL
same,Vd/F,[1]; [33],423 L
same,Tmax,[1]; [33],2 h
same,AUC(0-t),[1]; [34],18800 ng·h/mL
same,Cmax,[1]; [34],2630 ng/mL
same,Tmax,[1]; [34],3 h
same,AUC(0-t),[1]; [35],18400 ng·h/mL
same,Cmax,[1]; [35],1750 ng/mL
same,Vd/F,[1]; [35],585 L
same,Tmax,[1]; [35],3.1 h
same,Vd/F,"[1]; Day 7, Parts 1 and 2, All Doses (n = 76–97)",615 L
same,affinity of blocking the MDM2-p53 interaction,MDM2-p53 interaction,picomolar
same,effect of treatment in tumor xenograft models,MDM2-amplified tumors,tumor growth inhibition
same,effect on MDM2-amplified tumors in xenograft models,MDM2-amplified tumors; through induction of growth arrest and apoptosis,regression
